The subject of data set [1] is Sprague-Dawley rats. Description: Normoxic 20% CO2 panic provocation model. The procedure:
Experiments were performed in male Sprague-Dawley rats (300–350 g, Harlan Laboratory, Indianapolis, IN, United States). […] Following exposure to hypercarbic and atmospheric air gasses, rats were immediately placed in the open-field box for a 5 min period then assessed in SI test for 5 min. The data reported are changes in activity, expressed in 1 min bins, relative to the average of the baseline measurement (t-5 to t-1 minute) from each rat.
Each dependent variable for assessment of behavior and radiotelemetry data was respectively analyzed using a one way ANOVA, or a one way ANOVA with repeated measures with drug treatment as the main factor and time as repeated measures. In the presence of significant main effects post hoc tests were conducted using a parametric Fisher’s LSD test. Within subjects time effects were also assessed using a Dunnett’s one way analysis with the minute prior to the i.v infusion used as the control. Statistical significance was accepted with p < 0.05. All statistical analyses were carried out using SPSS 13.0 (SPSS, Inc., Chicago, IL, United States) and all graphs were generated using SigmaPlot 2001 (SPSS, Inc., Chicago, IL, United States) or Graphpad Prizm 7 Software, Inc. for Windows.
Activation of the OX1R is a critical component of CO2-mediated anxiety and hypertension ([Johnson et al., 2012a]). Exposing rats to higher concentrations of hypercarbic gas (e.g., 20% CO2) depolarizes OX neurons by interacting with pH/ CO2 chemosensitive K^+ channels ([Williams et al., 2007]), and also causes subsequent release of orexin at post-synaptic targets in the brain and spinal cord to mobilize anxiety-like behavior, hypertension, and increases ventilatory responses ([Johnson et al., 2012c], [2015]). JNJ-54717793 was tested in a rat model of CO2-induced panic.

The target of data set [2] is T1, OX1R in rat brain (tenia tecta) (Rattus norvegicus, UniProt P56718).
T1 construct: Twenty micron thick tissue sections at the level of the tenia tecta were prepared for autoradiography; from tissue; host or cells: brain sections (tenia tecta) of male Sprague-Dawley rats
T1 sequence (P56718 1-416): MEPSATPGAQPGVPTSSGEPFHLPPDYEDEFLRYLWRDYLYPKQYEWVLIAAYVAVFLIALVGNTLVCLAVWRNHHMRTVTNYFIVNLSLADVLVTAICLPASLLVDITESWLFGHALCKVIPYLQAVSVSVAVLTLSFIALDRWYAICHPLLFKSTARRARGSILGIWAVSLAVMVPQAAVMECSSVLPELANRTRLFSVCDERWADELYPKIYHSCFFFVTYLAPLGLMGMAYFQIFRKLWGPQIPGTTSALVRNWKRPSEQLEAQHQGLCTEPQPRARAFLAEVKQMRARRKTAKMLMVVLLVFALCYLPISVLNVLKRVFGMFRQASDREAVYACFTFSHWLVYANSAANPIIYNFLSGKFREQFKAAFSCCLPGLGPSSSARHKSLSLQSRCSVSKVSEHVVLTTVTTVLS
Briefly: Ex vivo OX1R receptor occupancy autoradiography in rat brain (tenia tecta), with plasma bioanalysis. To be noted: 10 mg/kg subcutaneous; for receptor occupancy at 10 mg/kg: sc.

The target of data set [3] is T2, human OX1R (Homo sapiens, UniProt O43613).
T2 sequence (O43613 1-425): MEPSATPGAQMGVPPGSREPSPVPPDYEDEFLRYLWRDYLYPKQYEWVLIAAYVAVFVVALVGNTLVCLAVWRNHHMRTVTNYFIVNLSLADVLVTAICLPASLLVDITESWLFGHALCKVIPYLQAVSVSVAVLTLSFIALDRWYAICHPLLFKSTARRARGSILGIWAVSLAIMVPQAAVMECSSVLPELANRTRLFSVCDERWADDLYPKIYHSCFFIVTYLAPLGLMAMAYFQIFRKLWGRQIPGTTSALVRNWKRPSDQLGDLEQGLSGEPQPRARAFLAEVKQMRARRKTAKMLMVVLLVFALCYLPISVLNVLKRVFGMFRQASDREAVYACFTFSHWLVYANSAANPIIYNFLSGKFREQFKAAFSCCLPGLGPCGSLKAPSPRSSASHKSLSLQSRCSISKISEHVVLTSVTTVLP
Description: Calcium mobilization functional assay, CHO-K1 cells, OX-A EC80.
Description: Stably transfected CHO-K1 cells for the human OX1R or HEK-293 cells for the rat OX1R were used for the in vitro functional assays. […] Since the intracellular calcium response is transient and not consistent with equilibrium assumptions, the assays were performed by giving a standard, EC80 dose of the OX agonist and calculating a pKB from inhibition of the agonist response by a dose range of the antagonists. The cells were plated in black 96 well tissue culture plates with clear bottoms at 50,000 cells/well and grown overnight at 37°C in 5% carbon dioxide (CO2). […] The cell plate was then transferred to the Molecular Devices Fluorometric Imaging Plate Reader (FLIPR) Tetra instrument, which adds the OX agonist and monitors changes in fluorescence which reflect intracellular calcium levels.
Results were calculated using GraphPad Prism (San Diego, CA, United States) software. Raw data from the FLIPR Tetra was exported as the difference between maximum and minimum fluorescence observed for each well. A non-linear regression was used to determine the agonist EC50 and antagonist IC50 for each plate, then the antagonist KB was calculated according to Cheng and Prusoff ([Cheng and Prusoff, 1973]).

The target in data set [4] is T2, human OX1R. Description: Human OX1R competitive radioligand binding ([3H]SB-674042). On the set-up: expressed in transfected cells; host or cells: clonal CHO-K1 cells. As for the experimental part: (§1) Human or rat OX1R binding was measured in competitive radioligand binding assays using [^3H]SB-674042 (1-(5-(2-fluoro-phenyl)-2-methyl-thiazol-4-yl)-1-((S)-2-(5-phenyl-(1,3,4)oxadiazol-2-ylmethyl)-pyrrolidin-l-yl)-methanone) as a tracer (4 nM, specific activity 35 Ci/mmol) as previously described ([Langmead et al., 2004]). Cell membranes were prepared from clonal CHO K1 cells transfected with the human OX1R or clonal HEK-293 cells transfected with the rat OX1R. Dilutions of test compounds were made in Dulbecco’s PBS from 10 mM stocks dissolved in dimethyl sulfoxide. After a 60 min incubation at room temperature, binding reactions were filtered. The membranes were counted in a scintillation counter. Non-specific binding was determined in the presence of 10 μM almorexant. Affinities of compounds for the human OX2R were measured by competitive radioligand binding using tritiated N-ethyl-2-[(6-methoxy-pyridin-3-yl)-(toluene-2-sulfonyl)-amino]-N-pyridin-3-ylmethyl-acetamide (EMPA) (2 nM, specific activity 27 Ci/mmol) ([Malherbe et al., 2009]). Cell membranes were prepared from a stable pool of HEK-293 cells transfected with the human OX2R. Non-specific binding was determined with 10 μM almorexant.
(§2) The Ki of the test compounds was calculated based on non-linear regression (one site competition) using Graphpad Prism. […]

In data set [5] the target is T3, rat OX1R (Rattus norvegicus, UniProt P56718).
T3 sequence (P56718 1-416): T1 sequence (P56718 1-416)
Description: Rat OX1R competitive radioligand binding ([3H]SB-674042). Details: expressed in transfected cells; host or cells: clonal HEK-293 cells. The procedure: as §1, §2

Read-outs that look alike come from different tables or passages of the source.

As for `O=C(c1cccc(F)c1-c1ncccn1)N1[C@@H]2CC[C@H]1[C@H](Nc1cnc(C(F)(F)F)cn1)C2` [JNJ-54717793, (1S,2R,4R)-7-([(3-fluoro-2-pyrimidin-2-ylphenyl)carbonyl]-N-[5-(trifluoromethyl)pyrazin-2-yl]-7-azabicyclo[2.2.1]heptan-2-amine)], the “CO2-induced pressor responses (MAP)” value in data set [1] (rats, 3 mg/kg p.o.) is reported as “at one time point”; in data set [1] (rats, 30 mg/kg p.o.), “attenuated CO2-induced pressor responses at multiple time points”. Besides, the “increases in locomotor activity post CO2” value in data set [1] (rats, 3, 10, 30 mg/kg p.o.) was “no effect”. The “CO2-induced bradycardia responses (HR)” value in data set [1] (rats, 10 and 30 mg/kg p.o.) is on record as “attenuated CO2-induced bradycardia responses at multiple time points”. Also, the “center or middle times in the open field test” value in data set [1] (rats, after CO2 challenge) is “Nor was there an effect”. The “sedative effects (line crossings) in the open field test” value in data set [1] (rats, after CO2 challenge) was “no apparent sedative effects”. In data set [1] (rats, highest dose (30 mg/kg p.o.)), the “CO2-induced anxiety behavior in the SI test” value was “attenuated/blocked”. Further, the “plasma concentration for maximal receptor occupancy” value in data set [2] is 2211 ± 339 ng/mL. The receptor occupancy at 10 mg/kg in data set [2] (2 h time point, read-out: OX1R occupancy) came to 65%; in data set [2] (observed at 30 min, read-out: maximal OX1R occupancy) it was 83 ± 7%. In data set [3], the Kb is 0.0166 µM. Also, the Ki in data set [4] was 0.0148 µM; in data set [5] it was 0.0145 µM. The “binding selectivity at the human OX1R compared to the human OX2R” value in data set [4] (hOX1R versus hOX2R) is given as 50 fold.

Source of the values: PMC5465257, “Evaluation of JNJ-54717793 a Novel Brain Penetrant Selective Orexin 1 Receptor Antagonist in Two Rat Models of Panic Attack Provocation” (Frontiers in Pharmacology, 2017).
